Test results taken from patent publication US7026333B1, “Retroviral protease inhibitors” (G. D. Searle & Co., priority 1999, dated 2006).

Experiments:
[1] = test system: CEM cells; test: CEM cell assay, intrinsic toxicity of test compound without virus (MTT); assay type: cell-based; conditions: 7 days, concentration reducing cellular viability by 50%
Protocol: (§1) The effectiveness of the compounds tested in Part A was also determined in a CEM cell assay. The HIV inhibition assay method of acutely infected cells is an automated tetrazolium based colorimetric assay essentially that reported by Pauwles et al, J. Virol. Methods 20, 309–321 (1988). Assays were performed in 96-well tissue culture plates. CEM cells, a CD4 cell line, were grown in RPMI-1640 medium (Gibco) supplemented with a 10% fetal calf serum and were then treated with polybrene ([…]). An 80 μL volume of medium containing 1×10^4 cells was dispensed into each well of the tissue culture plate. To each well was added a 100 μL volume of test compound dissolved in tissue culture medium (or medium without test compound as a control) to achieve the desired final concentration and the cells were incubated at 37° C. for 1 hour. A frozen culture of HIV-1 was diluted in culture medium to a concentration of 5×10^4 TCID50 per mL (TCID50=the dose of virus that infects 50% of cells in tissue culture), and a 20 μL volume of the virus sample (containing 1000 TCID50 of virus) was added to wells containing test compound and to wells containing only medium (infected control cells). Several wells received culture medium without virus (uninfected control cells). Likewise, the intrinsic toxicity of the test compound was determined by adding medium without virus to several wells containing test compound. In summary, the tissue culture plates contained the following experiments:
In experiments 2 and 4, the final concentrations of test compounds were 1, 10, 100 and 500 μg/mL. Either azidothymidine (AZT) or dideoxyinosine (ddI) was included as a positive drug control. […] DMSO was added to all control wells at an appropriate concentration.
Following the addition of virus, cells were incubated at 37° C. in a humidified, 5% CO2 atmosphere for 7 days. Test compounds could be added on days 0, 2 and 5 if desired. On day 7, post-infection, the cells in each well were resuspended and a 100 μL sample of each cell suspension was removed for assay. A 20μL volume of a 5 mg/mL solution of 3-(4,5-dimethylthiazol-2-yl)-2,5-diphenyltetrazolium bromide (MTT) was added to each 100 μL cell suspension, and the cells were incubated for 4 hours at […] in a 5% CO2 environment. […] To each sample was added […] of 10% sodium dodecylsulfate in 0.01 N HCl to lyse the cells, and samples were incubated overnight. The absorbance at 590 nm was determined for each sample using a Molecular Devices microplate reader. Absorbance values for each set of wells is compared to assess viral control infection, uninfected control cell response as well as test compound by cytotoxicity and antiviral efficacy.
The calculated EC50 (effective concentration 50%, i.e., the concentration at which the inhibitor compound reduces cytopathicity by 50%) and TD50 (toxic dose 50%, i.e., the concentration at which the inhibitor compound reduces cellular viability by 50%) values for these compounds are also shown in Table 1.

[2] = target: T1, HIV protease (Human immunodeficiency virus type 1 group M subtype B, UniProt P04585); test: Enzyme assay (HIV protease, fluorogenic substrate 2-aminobenzoyl-Ile-Nle-Phe(p-NO2)-Gln-ArgNH2); assay type: biochemical; conditions: HIV protease 12.3 nanomolar, substrate 80 μM, pH 6.4; read-out: Enzyme Inhibition (IC50)
T1 construct: HIV protease is diluted in the assay buffer to a final enzyme concentration of 12.3 nanomolar, based on a molecular weight of 10,780
Protocol: The calculated IC50 (inhibiting concentration 50%, i.e., the concentrations at which the inhibitor compound reduces enzyme activity by 50%) values are shown in Table 1. The enzyme method is described below. The substrate is 2-aminobenzoyl-Ile-Nle-Phe(p-NO2)-Gln-ArgNH2. The positive control is MVT-101 (Miller, M. et al, Science, 246, 1149 (1989)] The assay conditions are as follows:
Assay buffer: 20 mM sodium phosphate, pH 6.4
• 20% glycerol • 1 mM EDTA • 1 mM DTT • 0.1% CHAPS
The above described substrate is dissolved in DMSO, then diluted 10 fold in assay buffer. Final substrate concentration in the assay is 80 μM.
HIV protease is diluted in the assay buffer to a final enzyme concentration of 12.3 nanomolar, based on a molecular weight of 10,780.
The final concentration of DMSO is 14% and the final concentration of glycerol is 18%. The test compound is dissolved in DMSO and diluted in DMSO to 10× the test concentration; 10 μL of the enzyme preparation is added, the materials mixed and then the mixture is incubated at ambient temperature for 15 minutes. The enzyme reaction is initiated by the addition of 40 μL of substrate. The increase in fluorescence is monitored at 4 time points (0, 8, 16 and 24 minutes) at ambient temperature. Each assay is carried out in duplicate wells.

[3] = test system: HIV-1; test: CEM cell assay, HIV inhibition in acutely infected cells (MTT); assay type: cell-based; conditions: Human immunodeficiency virus 1, CCRF-CEM, 168 h; CEM cells acutely infected with HIV-1, 7 days; concentration reducing cytopathicity by 50%; read-out: Antiviral Activity in Cell Culture (EC50)
Protocol: as §1, with “A frozen culture of HIV-1 was diluted in culture medium to a concentration of 5×10^4 TCID50 per mL (TCID50=the dose of virus that infects 50% of cells in tissue culture), and a 20 μL volume of the virus sample (containing 1000 TCID50 of virus) was added to wells containing test compound and to wells containing only medium (infected control cells). Several wells received culture medium without virus (uninfected control cells).” left out, “In summary, the tissue culture plates contained the following experiments:” left out
Following the addition of virus, cells were incubated at 37° C. in a humidified, 5% CO2 atmosphere for 7 days. […] The absorbance at 590 nm was determined for each sample using a Molecular Devices microplate reader. Absorbance values for each set of wells is compared to assess viral control infection, uninfected control cell response as well as test compound by cytotoxicity and antiviral efficacy. […]

Row | SMILES | Cell Toxicity (TD50) [1] | IC50 [2] [µM] | EC50 [3] [µM]
1 | C[C@@H](C(=O)N[C@@H](Cc1ccccc1)[C@H](O)CN1C[C@H]2CCCC[C@H]2C[C@H]1C(=O)NC(C)(C)C)C(C)(C)C(=O)O | 50,000 nM | – | –
2 | COc1ccc(COC(=O)NC[C@@H](C)C(=O)N[C@@H](Cc2ccccc2)[C@H](O)CN2C[C@H]3CCCC[C@H]3C[C@H]2C(=O)NC(C)(C)C)cc1 | 2,000 nM | – | –
3 | C[C@H](CS(C)(=O)=O)C(=O)N[C@@H](Cc1ccccc1)[C@H](O)CN1C[C@H]2CCCC[C@H]2C[C@H]1C(=O)NC(C)(C)C | 58,000 nM | – | –
4 | C[C@@H](C(=O)N[C@@H](Cc1ccccc1)[C@H](O)CN1C[C@H]2CCCC[C@H]2C[C@H]1C(=O)NC(C)(C)C)C(C)(C)C(N)=O | 59,000 nM | 0.009 | 0.098
5 | CC(C)(C)NC(=O)[C@@H]1C[C@@H]2CCCC[C@@H]2CN1C[C@@H](O)[C@H](Cc1ccccc1)NC(=O)C[C@H](NC(=O)c1ccc2ccccc2n1)C(N)=O | 5,000 nM | – | –
